# Measurements from patent publication US20120189547A1 (priority 2009, published 2012).
# Tests used:
# GABAA receptor = settings: cited from earlier work
# [1] = In vivo biodistribution in naive male Sprague-Dawley rats; settings: rat; for Time at which regional differentiation remained apparent / Pituitary gland / Thalamus: male, Sprague-Dawley; for Time at which regional differentiation remained apparent / Pituitary gland / Thalamus / Clearance from whole brain after peak uptake: in vivo; for Whole brain uptake, peak: at the time of peak; for Regional differentiation between GABA-rich and GABA-poor regions of the brain: in vivo biodistribution; for Cerebellum / Hippocampus / Pons/Medulla / Pre-frontal cortex / Striatum: lateral tail vein, mean (SD), n = 3; for Pre-frontal cortex: thalmus: ratio
# Description: Adult male Sprague-Dawley rats (body weight 202±37 g; mean±SD) were injected with between 1 and 5 MBq of [^18F]-Compound 1 via a lateral tail vein. All animals were conscious, but lightly restrained during injection and subsequently housed in short-term metabolism cages. At the appropriate time point; 30 seconds, 2, 10, 30 and 60 minutes post-injection (pi) (n=3 per time point), the animals were sacrificed by cervical dislocation. The brain and peripheral tissues or fluids were sampled post-mortem. Radioactivity in the brain samples was measured using a Wallac gamma counter. Once assayed, the brain samples, along with the remaining organ or tissue samples were assayed using a twin-crystal gamma-counter system (BASIL), with automatic correction for radioactive decay.
# The biodistribution protocol described in Example 6 for Compound 1 was used to assess Compound 2.
# [2] = cited from earlier work
compound,measurement,setting,value
"CCOC(=O)c1ncn2c1CN(C)C(=O)c1cc([18F])ccc1-2 [[18F]FMZ, [18F]flumazenil]",Ki,GABAA receptor; prior art statement,~0.5 nM
CN1Cc2c(C(=O)OC(C)(C)C)ncn2-c2ccc(OCC[18F])cc2C1=O [[18F]-Compound 2],Time at which regional differentiation remained apparent,[1],10 minutes pi
same,Pituitary gland,[1]; 0.5 min,0.82 (0.21) % id/g
same,Thalamus,[1]; 0.5 min,0.67 (0.12) % id/g
same,Pituitary gland,[1]; 2 min,1.07 (0.19) % id/g
same,Thalamus,[1]; 2 min,0.78 (0.20) % id/g
same,Pituitary gland,[1]; 10 min,0.69 (0.11) % id/g
same,Thalamus,[1]; 10 min,0.69 (0.12) % id/g
same,Pituitary gland,[1]; 30 min,0.64 (0.04) % id/g
same,Thalamus,[1]; 30 min,0.62 (0.12) % id/g
same,Pituitary gland,[1]; 60 min,0.51 (0.04) % id/g
same,Thalamus,[1]; 60 min,0.49 (0.02) % id/g
same,Time of peak whole brain uptake,[1],2 minutes pi
same,"Whole brain uptake, peak",[1],0.82%
same,Clearance from whole brain after peak uptake,[1],slow with a decreasing rate
same,Regional differentiation between GABA-rich and GABA-poor regions of the brain,[1],good
same,Cerebellum,[1]; 0.5 min post-injection,0.75 (0.10) % id/g
same,Hippocampus,[1]; 0.5 min post-injection,0.63 (0.08) % id/g
same,Pons/Medulla,[1]; 0.5 min post-injection,0.58 (0.09) % id/g
same,Pre-frontal cortex,[1]; 0.5 min post-injection,0.80 (0.05) % id/g
same,Striatum,[1]; 0.5 min post-injection,0.63 (0.05) % id/g
same,Cerebellum,[1]; 2 min post-injection,0.82 (0.19) % id/g
same,Hippocampus,[1]; 2 min post-injection,0.89 (0.20) % id/g
same,Pons/Medulla,[1]; 2 min post-injection,0.61 (0.14) % id/g
same,Pre-frontal cortex,[1]; 2 min post-injection,1.07 (0.29) % id/g
same,Striatum,[1]; 2 min post-injection,0.71 (0.16) % id/g
same,Cerebellum,[1]; 10 min post-injection,0.74 (0.08) % id/g
same,Hippocampus,[1]; 10 min post-injection,0.94 (0.06) % id/g
same,Pons/Medulla,[1]; 10 min post-injection,0.56 (0.09) % id/g
same,Pre-frontal cortex,[1]; 10 min post-injection,1.04 (0.15) % id/g
same,Striatum,[1]; 10 min post-injection,0.61 (0.10) % id/g
same,Cerebellum,[1]; 30 min post-injection,0.59 (0.06) % id/g
same,Hippocampus,[1]; 30 min post-injection,0.75 (0.03) % id/g
same,Pons/Medulla,[1]; 30 min post-injection,0.52 (0.05) % id/g
same,Pre-frontal cortex,[1]; 30 min post-injection,0.75 (0.06) % id/g
same,Striatum,[1]; 30 min post-injection,0.55 (0.096) % id/g
same,Cerebellum,[1]; 60 min post-injection,0.47 (0.02) % id/g
same,Hippocampus,[1]; 60 min post-injection,0.53 (0.01) % id/g
same,Pons/Medulla,[1]; 60 min post-injection,0.45 (0.02) % id/g
same,Pre-frontal cortex,[1]; 60 min post-injection,0.51 (0.03) % id/g
same,Striatum,[1]; 60 min post-injection,0.45 (0.02) % id/g
same,Pre-frontal cortex: thalmus,[1]; 0.5 min post-injection,1.22
same,Pre-frontal cortex: thalmus,[1]; 2 min post-injection,1.36
same,Pre-frontal cortex: thalmus,[1]; 10 min post-injection,1.51
same,Pre-frontal cortex: thalmus,[1]; 30 min post-injection,1.23
same,Pre-frontal cortex: thalmus,[1]; 60 min post-injection,1.05
"CCOC(=O)c1ncn2c1CN(CC[18F])C(=O)c1cc(F)ccc1-2 [[18F]FEFMZ, [18F]fluoroethylflumazenil]",Clearance following administration in vivo,[2]; in vivo,too rapid
"CN1Cc2c(C(=O)OCC[18F])ncn2-c2ccc(F)cc2C1=O [[18F]FFMZ, [18F]fluoroflumazenil]",Brain uptake,[2]; reported in prior art,high
same,Selective binding to GABAA receptors,GABAA receptor; reported in prior art,high selective binding
CCOC(=O)c1ncn2c1CN(C)C(=O)c1cc(OCC[18F])ccc1-2 [[18F]-Compound 1],Time at which regional differentiation remained apparent,[1],30 minutes pi
same,Pituitary gland,[1]; 0.5 min,0.60 (0.1) % id/g
same,Thalamus,[1]; 0.5 min,0.30 (0.11) % id/g
same,Pituitary gland,[1]; 2 min,0.69 (0.13) % id/g
same,Thalamus,[1]; 2 min,0.47 (0.07) % id/g
same,Pituitary gland,[1]; 10 min,0.55 (0.10) % id/g
same,Thalamus,[1]; 10 min,0.39 (0.05) % id/g
same,Pituitary gland,[1]; 30 min,0.30 (0.02) % id/g
same,Thalamus,[1]; 30 min,0.24 (0.05) % id/g
same,Pituitary gland,[1]; 60 min,0.26 (0.08) % id/g
same,Thalamus,[1]; 60 min,0.20 (0.07) % id/g
same,Time of peak whole brain uptake,[1],10 minutes pi
same,"Whole brain uptake, peak",[1],0.9%
same,Clearance from whole brain after peak uptake,[1],slow with a decreasing rate
same,Regional differentiation between GABA-rich and GABA-poor regions of the brain,[1],good
same,Cerebellum,[1]; 0.5 min post-injection,0.28 (0.06) % id/g
same,Hippocampus,[1]; 0.5 min post-injection,0.26 (0.08) % id/g
same,Pons/Medulla,[1]; 0.5 min post-injection,0.23 (0.04) % id/g
same,Pre-frontal cortex,[1]; 0.5 min post-injection,0.33 (0.1) % id/g
same,Striatum,[1]; 0.5 min post-injection,0.26 (0.07) % id/g
same,Cerebellum,[1]; 2 min post-injection,0.43 (0.03) % id/g
same,Hippocampus,[1]; 2 min post-injection,0.43 (0.06) % id/g
same,Pons/Medulla,[1]; 2 min post-injection,0.34 (0.02) % id/g
same,Pre-frontal cortex,[1]; 2 min post-injection,0.57 (0.02) % id/g
same,Striatum,[1]; 2 min post-injection,0.41 (0.04) % id/g
same,Cerebellum,[1]; 10 min post-injection,0.36 (0.05) % id/g
same,Hippocampus,[1]; 10 min post-injection,0.43 (0.07) % id/g
same,Pons/Medulla,[1]; 10 min post-injection,0.28 (0.05) % id/g
same,Pre-frontal cortex,[1]; 10 min post-injection,0.53 (0.09) % id/g
same,Striatum,[1]; 10 min post-injection,0.36 (0.04) % id/g
same,Cerebellum,[1]; 30 min post-injection,0.23 (0.04) % id/g
same,Hippocampus,[1]; 30 min post-injection,0.32 (0.05) % id/g
same,Pons/Medulla,[1]; 30 min post-injection,0.18 (0.04) % id/g
same,Pre-frontal cortex,[1]; 30 min post-injection,0.35 (0.07) % id/g
same,Striatum,[1]; 30 min post-injection,0.21 (0.04) % id/g
same,Cerebellum,[1]; 60 min post-injection,0.20 (0.05) % id/g
same,Hippocampus,[1]; 60 min post-injection,0.26 (0.07) % id/g
same,Pons/Medulla,[1]; 60 min post-injection,0.19 (0.05) % id/g
same,Pre-frontal cortex,[1]; 60 min post-injection,0.24 (0.06) % id/g
same,Striatum,[1]; 60 min post-injection,0.18 (0.04) % id/g
same,Pre-frontal cortex: thalmus,[1]; 0.5 min post-injection,1.13
same,Pre-frontal cortex: thalmus,[1]; 2 min post-injection,1.23
same,Pre-frontal cortex: thalmus,[1]; 10 min post-injection,1.35
same,Pre-frontal cortex: thalmus,[1]; 30 min post-injection,1.44
same,Pre-frontal cortex: thalmus,[1]; 60 min post-injection,1.21
